Assay [1] concerns diaphorase. Nature of the assay: fluorescently labeled diaphorase binding to peptide array with or without excess FAD. The note with it: for 1 microM FAD (array fluorescence of bound diaphorase) / 1 micro no FAD (array fluorescence of bound diaphorase): 1 micromolar labeled diaphorase; for 1 microM FAD (array fluorescence of bound diaphorase) / 10 microM FAD (array fluorescence of bound diaphorase): excess FAD present; for 1 microM FAD (array fluorescence of bound diaphorase) / 1 micro no FAD (array fluorescence of bound diaphorase) / 10 microM FAD (array fluorescence of bound diaphorase) / 10 microM no FAD (array fluorescence of bound diaphorase): 65535 is detector saturation; for 10 microM FAD (array fluorescence of bound diaphorase) / 10 microM no FAD (array fluorescence of bound diaphorase): 10 micromolar labeled diaphorase; for 1 microM noFAD/FAD / 10 microM noFAD/FAD: ratio of binding without FAD to binding with FAD; for 1 microM noFAD/FAD / Meas. ratio: 1 micromolar diaphorase; for 10 microM noFAD/FAD: 10 micromolar diaphorase; for Meas. ratio: ratio without/with FAD calculated from measured binding values. The method, boiled down:
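Fluorescently labeled diaphorase, at 1 and 10 micromolar, bound to an array of about 126,000 peptides (16 amino acids; C, I, M, T omitted; GSG linker), with or without excess FAD. Fluorescence per feature scanned; 65535 marks detector saturation.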

Assay [2] concerns the target Diaphorase. Nature of the assay: peptide array, 1 uM labeled diaphorase, no FAD.
Assay [3] has as its target Diaphorase. Put plainly: peptide array, 10 uM labeled diaphorase, no FAD.
In assay [4] the target is Diaphorase. Nature of the assay: peptide array, 1 uM labeled diaphorase, with FAD.
For assay [5], the target named is Diaphorase. Nature of the assay: peptide array, 10 uM labeled diaphorase, with FAD.
The target of assay [6] is Diaphorase. Put plainly: peptide array, 1 uM diaphorase, binding without FAD / with FAD.
Assay [7] has as its target Diaphorase. Put plainly: peptide array, 10 uM diaphorase, binding without FAD / with FAD.

Regarding “YRNAAWFSGGSG [array peptide with C-terminal GSG linker]”, in the assay with diaphorase [1], the “1 microM FAD (array fluorescence of bound diaphorase)” value was determined as 2926, the “1 micro no FAD (array fluorescence of bound diaphorase)” value stood at 8372.25, the “10 microM FAD (array fluorescence of bound diaphorase)” value stood at 43282 and the “10 microM no FAD (array fluorescence of bound diaphorase)” value turned out to be 65535. Further, in the assay on diaphorase [1], the “1 microM noFAD/FAD” value was 2.861, the “10 microM noFAD/FAD” value stood at 1.514 and the Meas. ratio is on record as 2.86.
With “YVWGLELSGGSG [array peptide with C-terminal GSG linker]”, in the assay on diaphorase [1], the “1 microM FAD (array fluorescence of bound diaphorase)” value stood at 4688.5, the “1 micro no FAD (array fluorescence of bound diaphorase)” value came to 2607.5, the “10 microM FAD (array fluorescence of bound diaphorase)” value was 36320 and the “10 microM no FAD (array fluorescence of bound diaphorase)” value is 17286.5. In the assay on diaphorase [1], the “1 microM noFAD/FAD” value stood at 0.5561, the “10 microM noFAD/FAD” value stood at 0.4759 and the Meas. ratio is listed as 0.56.
With “EDEGLSKFEGGSG [array peptide with C-terminal GSG linker]”, in the assay with diaphorase [1], the “1 microM FAD (array fluorescence of bound diaphorase)” value stood at 4165.5, the “1 micro no FAD (array fluorescence of bound diaphorase)” value is 560.55, the “10 microM FAD (array fluorescence of bound diaphorase)” value is given as 1378.5 and the “10 microM no FAD (array fluorescence of bound diaphorase)” value worked out at 1220.25. For the same molecule, in the assay on diaphorase [1], the “1 microM noFAD/FAD” value amounted to 0.1346, the “10 microM noFAD/FAD” value is listed as 0.8852 and the Meas. ratio is on record as 0.13.
As for RVLPYHGWKWFSG, in the assay on diaphorase [1], the Meas. ratio is 2.45.
Consider “RYAYFQHLGGSG [array peptide with C-terminal GSG linker]”, for which, in the assay with diaphorase [1], the “1 microM FAD (array fluorescence of bound diaphorase)” value was found to be 4971.5, the “1 micro no FAD (array fluorescence of bound diaphorase)” value was 13584.75, the “10 microM FAD (array fluorescence of bound diaphorase)” value came out at 64053.5 and the “10 microM no FAD (array fluorescence of bound diaphorase)” value was determined as 65535. Besides, in the assay with diaphorase [1], the “1 microM noFAD/FAD” value was determined as 2.733, the “10 microM noFAD/FAD” value came to 1.023 and the Meas. ratio is reported as 2.73.
In the case of “PRYSGQYGGSG [array peptide with C-terminal GSG linker]”, in the assay on diaphorase [1], the “1 microM FAD (array fluorescence of bound diaphorase)” value was 3234.25, the “1 micro no FAD (array fluorescence of bound diaphorase)” value was 8432.75, the “10 microM FAD (array fluorescence of bound diaphorase)” value is 45157.75 and the “10 microM no FAD (array fluorescence of bound diaphorase)” value worked out at 65535. For the same molecule, in the assay on diaphorase [1], the “1 microM noFAD/FAD” value was 2.607, the “10 microM noFAD/FAD” value is 1.451 and the Meas. ratio was 2.61.
Turning to ALDKLSGLWKHVG, the Meas. ratio in the assay on diaphorase [1] is 0.69.
Take “YRFAQYKGQKDGSG [array peptide with C-terminal GSG linker]”: in the assay with diaphorase [1], the “1 microM FAD (array fluorescence of bound diaphorase)” value is 1604.25, the “1 micro no FAD (array fluorescence of bound diaphorase)” value turned out to be 4467.75, the “10 microM FAD (array fluorescence of bound diaphorase)” value is on record as 19933.75 and the “10 microM no FAD (array fluorescence of bound diaphorase)” value was 56915. Besides, in the assay on diaphorase [1], the “1 microM noFAD/FAD” value stood at 2.785, the “10 microM noFAD/FAD” value is listed as 2.855 and the Meas. ratio is 2.78.
As to “YRLNLKHPVGGSG [array peptide with C-terminal GSG linker]”, in the assay with diaphorase [1], the “1 microM FAD (array fluorescence of bound diaphorase)” value was 4146.5, the “1 micro no FAD (array fluorescence of bound diaphorase)” value was determined as 12652.75, the “10 microM FAD (array fluorescence of bound diaphorase)” value is 56689 and the “10 microM no FAD (array fluorescence of bound diaphorase)” value is 65535. Also, in the assay on diaphorase [1], the “1 microM noFAD/FAD” value is recorded as 3.051, the “10 microM noFAD/FAD” value came out at 1.156 and the Meas. ratio was 3.05.
On to “AFNVWQYFEGGSG [array peptide with C-terminal GSG linker]”, for which the Meas. ratio in the assay on diaphorase [1] was 0.73.
As to “VFGVLSQVARDGSG [array peptide with C-terminal GSG linker]”, in the assay with diaphorase [1], the “1 microM FAD (array fluorescence of bound diaphorase)” value is on record as 6638, the “1 micro no FAD (array fluorescence of bound diaphorase)” value turned out to be 4250.5, the “10 microM FAD (array fluorescence of bound diaphorase)” value was 51495.5 and the “10 microM no FAD (array fluorescence of bound diaphorase)” value is reported as 26186.5. In addition, in the assay on diaphorase [1], the “1 microM noFAD/FAD” value was 0.6403, the “10 microM noFAD/FAD” value turned out to be 0.5085 and the Meas. ratio was 0.64.
As to “RNWYGGSG [array peptide with C-terminal GSG linker]”, in the assay with diaphorase [1], the “1 microM FAD (array fluorescence of bound diaphorase)” value stood at 2940.75, the “1 micro no FAD (array fluorescence of bound diaphorase)” value was 7830.5, the “10 microM FAD (array fluorescence of bound diaphorase)” value came to 48587 and the “10 microM no FAD (array fluorescence of bound diaphorase)” value worked out at 65535. Besides, in the assay on diaphorase [1], the “1 microM noFAD/FAD” value turned out to be 2.663, the “10 microM noFAD/FAD” value is reported as 1.349 and the Meas. ratio is reported as 2.66.
With “WRSVYVPNGGSG [array peptide with C-terminal GSG linker]”, the Meas. ratio in the assay on diaphorase [1] is given as 2.35.
Take “ELFGALFKGGSG [array peptide with C-terminal GSG linker]”: in the assay with diaphorase [1], the “1 microM FAD (array fluorescence of bound diaphorase)” value is 3403, the “1 micro no FAD (array fluorescence of bound diaphorase)” value is listed as 2083.5, the “10 microM FAD (array fluorescence of bound diaphorase)” value worked out at 25315 and the “10 microM no FAD (array fluorescence of bound diaphorase)” value is recorded as 12943.5. For the same molecule, in the assay with diaphorase [1], the “1 microM noFAD/FAD” value was 0.6123, the “10 microM noFAD/FAD” value amounted to 0.5113 and the Meas. ratio is recorded as 0.61.
Turning to “YRFQSGLPAKDGSG [array peptide with C-terminal GSG linker]”, in the assay with diaphorase [1], the “1 microM FAD (array fluorescence of bound diaphorase)” value is reported as 1489.75, the “1 micro no FAD (array fluorescence of bound diaphorase)” value is listed as 4041.25, the “10 microM FAD (array fluorescence of bound diaphorase)” value is recorded as 20226.25 and the “10 microM no FAD (array fluorescence of bound diaphorase)” value is listed as 50316.25. Also, in the assay with diaphorase [1], the “1 microM noFAD/FAD” value is 2.713, the “10 microM noFAD/FAD” value is 2.488 and the Meas. ratio is recorded as 2.71.
With DANLFGYFKDGGS, the Meas. ratio in the assay on diaphorase [1] is 0.70.

B1: … (peptide)
peptide: YNRNAKSSGGSG
B1: the fluorescence with Diaphorase [2] stood at 4010; in the assay with Diaphorase [3], 41300; in the assay with Diaphorase [4], 1550; with Diaphorase [5], 18600. Moreover, the noFAD/FAD with Diaphorase [6] came to 2.6; in the assay with Diaphorase [7], 2.23.

B2: … (peptide)
peptide: RWKYQKFNGGSG
B2: the fluorescence with Diaphorase [2] stood at 10200; with Diaphorase [3], 61300; with Diaphorase [4], 3860; with Diaphorase [5] it was 46200. Besides, the noFAD/FAD with Diaphorase [6] stood at 2.63; with Diaphorase [7], 1.33.

B3: … (peptide)
peptide: RFKYPLDGGSG
As for B3, the fluorescence with Diaphorase [2] was 5760; with Diaphorase [3] it was 55900; in the assay with Diaphorase [4], 2200; with Diaphorase [5] it was 30400. Besides, the noFAD/FAD with Diaphorase [6] amounted to 2.62; with Diaphorase [7], 1.84.

B4: … (peptide)
peptide: RLQYLFKSDGSG
Regarding B4, the fluorescence with Diaphorase [2] turned out to be 5780; in the assay with Diaphorase [3], 64300; in the assay with Diaphorase [4] it was 1960; in the assay with Diaphorase [5], 30600. The noFAD/FAD in the assay with Diaphorase [6] turned out to be 2.94; with Diaphorase [7], 2.1.

B5: … (peptide)
peptide: KEAPGPRFGGSG
Take B5: the fluorescence in the assay with Diaphorase [2] amounted to 1070; in the assay with Diaphorase [3], 5610; with Diaphorase [4] it was 8280; with Diaphorase [5] it was 5470. The noFAD/FAD with Diaphorase [6] worked out at 0.129; with Diaphorase [7] it was 1.03.

B6: … (peptide)
peptide: WRGFKFADGGSG
With B6, the fluorescence came out at 5650 in the assay with Diaphorase [2], 58900 with Diaphorase [3], 2160 with Diaphorase [4] and 31500 with Diaphorase [5]. Moreover, the noFAD/FAD in the assay with Diaphorase [6] was found to be 2.62; with Diaphorase [7] it was 1.87.

B7: … (peptide)
peptide: EDEGLSKFEGGSG
B7: the fluorescence was determined as 561 with Diaphorase [2], 1220 with Diaphorase [3], 4170 with Diaphorase [4] and 1380 in the assay with Diaphorase [5]. Also, the noFAD/FAD with Diaphorase [6] stood at 0.135; with Diaphorase [7], 0.885.

B8: … (peptide)
peptide: RQYQKHSYAKFSGSG
For B8, the fluorescence with Diaphorase [2] turned out to be 6760; in the assay with Diaphorase [3], 57200; with Diaphorase [4] it was 2460; in the assay with Diaphorase [5], 27300. Also, the noFAD/FAD with Diaphorase [6] is 2.75; with Diaphorase [7], 2.1.

B9: … (peptide)
peptide: KNRPYNKDLEDGSG
B9: the fluorescence with Diaphorase [2] was determined as 733; with Diaphorase [3] it was 2520; with Diaphorase [4], 5150; in the assay with Diaphorase [5] it was 2590. The noFAD/FAD came out at 0.142 with Diaphorase [6] and 0.974 with Diaphorase [7].

B10: … (peptide)
peptide: YRFQSGLPAKDGSG
As for B10, the fluorescence with Diaphorase [2] was 4040; in the assay with Diaphorase [3] it was 50300; with Diaphorase [4], 1490; in the assay with Diaphorase [5], 20200. Moreover, the noFAD/FAD is 2.71 with Diaphorase [6] and 2.49 with Diaphorase [7].

Values taken from patent US20190064177A1, “INCORPORATING COMPETITIVE BINDING INFORMATION INTO MOLECULAR ARRAY ANALYSIS TO GENERATE FUNCTION NETWORKS OF INTERACTIONS” (ARIZONA BOARD OF REGENTS ON BEHALF OF ARIZONA STATE …, priority 2017, published 2019).
